Measurements published in patent US6969718B2, “17-β hydroxysteroid dehydrogenase type 3 inhibitors for the treatment of androgen dependent diseases” (Schering Corporation, priority 2001, dated 2005).

| Structure (SMILES) | melting point |
| --- | --- |
| CC(C)[C@H]1CN(C(C)c2ccc(Cl)cc2)CCN1C(=O)CC1CCN(C(N)=O)CC1 (stereo partly drawn) [Example 101] | 76 to 82 °C |
| CC(=O)N1CCC(CC(=O)N2CCN(Cc3ccc(Cl)c(Cl)c3)C[C@@H]2C(C)(C)C)CC1 [Example 104] | 49 to 53 °C |
| CC(=O)N1CCC(CC(=O)N2CCN(Cc3ccccc3-c3ccc(Cl)c(Cl)c3)C[C@@H]2C(C)(C)C)CC1 [Example 106] | 62.1 to 63.6 °C |
| CC(=O)N1CCC(CC(=O)N2CCN(Cc3ccc(-c4ccc(Cl)c(Cl)c4)cn3)C[C@@H]2C(C)(C)C)CC1 [Example 107] | 145.7 to 147 °C |
| CC(=O)N1CCC(CC(=O)N2CCN(C(CC3CC3)c3ccc(Cl)c(Cl)c3)C[C@@H]2C(C)(C)C)CC1 (stereo partly drawn) [Example 109] | 61 to 63 °C |
| CC(=O)N1CCC(CC(=O)N2CCN(C(CC3CC3)c3ccc(Cl)c(Cl)c3)C[C@@H]2C(C)(C)C)CC1 (stereo partly drawn) [Example 110] | 61 to 65 °C |
| CC(=O)N1CCC(CC(=O)N2CCN(C(CCC(F)(F)F)c3ccc(C(F)(F)F)cc3)C[C@@H]2C(C)(C)C)CC1 (stereo partly drawn) [Example 111] | 61 to 63 °C |
| CC(C)(C)[C@H]1CN(Cc2ccc(Cl)c(Cl)c2)CCN1C(=O)CC1CCN(C(N)=O)CC1 [Example 113] | 80 to 85 °C |
| CC(C)(C)[C@H]1CN(Cc2ccccc2-c2ccc(Cl)c(Cl)c2)CCN1C(=O)CC1CCN(C(N)=O)CC1 [Example 114] | 98.8 to 102.4 °C |
| CC(C)(C)[C@H]1CN(Cc2ccc(-c3ccc(Cl)c(Cl)c3)cn2)CCN1C(=O)CC1CCN(C(N)=O)CC1 [Example 115] | 95.2 to 98 °C |
| CC(C)(C)[C@H]1CN(C(CC2CC2)c2ccc(Cl)c(Cl)c2)CCN1C(=O)CC1CCN(C(N)=O)CC1 (stereo partly drawn) [Example 116] | 91 to 94 °C |
| CC(C)(C)[C@H]1CN(C(CCC(F)(F)F)c2ccc(C(F)(F)F)cc2)CCN1C(=O)CC1CCN(C(N)=O)CC1 (stereo partly drawn) [Example 117] | 76 to 80 °C |
